Data taken from patent US20060069132A1, “Azolecarboxamide herbicides” (priority 2004, published 2006).

Assays:
corn = test: Test B pre-/postemergence herbicide test; assay type: in vivo, Zea mays
Procedure, shortened: (§1)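 Evaluation is visual, comparing treated with control plants on a scale where 0 means no effect and 100 means full control. Treatments were preemergence, or postemergence on seedlings 2–18 cm tall, and held 13–15 days in the greenhouse.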

blackgrass = test: Test B postemergence herbicide test; assay type: in vivo, Alopecurus myosuroides; conditions: scale 0 (no effect) to 100 (complete control)
Procedure, shortened: (§2)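 Greenhouse test; postemergence application to plants at 1–4 leaves (2–18 cm); paddy species at 2 leaves; evaluated visually vs controls at 13–15 days; scale 0–100 (100 = complete control).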

giant foxtail [1] = test: Test B pre-/postemergence herbicide test; assay type: in vivo, Setaria faberi
Procedure, shortened: as §1

barnyardgrass [2] = test: Test A pre-/postemergence herbicide test; assay type: in vivo, Echinochloa crus-galli
Procedure, shortened: (§3)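 Greenhouse injury scoring (0–100, complete control = 100) at approximately ten days follows simultaneous pre- and postemergence application. Soil received a directed spray after seeding; seedlings of 2–10 cm at the one- to two-leaf stage were sprayed to runoff.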

rice [3] = test: Test B flooded paddy test; assay type: in vivo, Oryza sativa; conditions: 1000 g ai/ha, visual rating, scale 0 to 100 (0 no effect, 100 complete control), 13 to 15 days
Procedure, shortened: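 Each value is a visual 0–100 response rating taken against controls 13 to 15 days after treatment in the greenhouse. Plants received formulated chemical postemergence at the 1- to 4-leaf stage or, in flooded paddy, at the 2-leaf stage.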

large crabgrass [4] = test: Test B pre-/postemergence herbicide test; assay type: in vivo, Digitaria sanguinalis
Procedure, shortened: as §1

[5] = test system: small flower umbrella sedge; test: Test B flooded paddy test; assay type: in vivo, Cyperus difformis; conditions: 1000 g ai/ha, visual rating, scale 0 to 100 (0 no effect, 100 complete control), 13 to 15 days
Procedure, shortened: as §2

redroot pigweed = test: Test A pre-/postemergence herbicide test; assay type: in vivo, Amaranthus retroflexus
Procedure, shortened: as §3

morningglory [6] = test: Test A pre-/postemergence herbicide test; assay type: in vivo, Ipomoea spp.
Procedure, shortened: as §3

velvetleaf [7] = test: Test A pre-/postemergence herbicide test; assay type: in vivo, Abutilon theophrasti
Procedure, shortened: as §3

wild oat = test: Test B postemergence herbicide test; assay type: in vivo, Avena fatua; conditions: scale 0 (no effect) to 100 (complete control)
Procedure, shortened: (§4)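 Read-out: visual comparison with controls, scored 0 to 100, where 100 means complete control and 0 no effect. Formulated chemicals were applied postemergence to plants 2–18 cm tall (1- to 4-leaf), or to flooded-paddy plants at the 2-leaf stage, then held 13 to 15 days under glass.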

rice [8] = test: Test B pre-/postemergence herbicide test; assay type: in vivo, Oryza sativa; conditions: preemergence, 125 g ai/ha; 0 to 100 scale, 0 is no effect, 100 is complete control
Procedure, shortened: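 Plants compared with untreated controls 13–15 days post-treatment and given a visual 0–100 injury score. Applications: preemergence to seeds; postemergence at 1- to 4-leaf (2–18 cm); paddy species flooded, 2-leaf stage. Vehicle non-phytotoxic, surfactant included.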

giant foxtail [9] = test: Test A pre-/postemergence herbicide test; assay type: in vivo, Setaria faberi
Procedure, shortened: as §3

morningglory [10] = test: Test B pre-/postemergence herbicide test; assay type: in vivo, Ipomoea coccinea
Procedure, shortened: (§5)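 Greenhouse pot assay with simultaneous preemergence (treated seed) and postemergence (2–18 cm seedlings) applications of surfactant-containing, non-phytotoxic solvent formulations. Response scored visually 13–15 days later on a 0–100 scale, 100 meaning complete control.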

ducksalad = test: Test B flooded paddy test; assay type: in vivo, Heteranthera limosa; conditions: 1000 g ai/ha, visual rating, scale 0 to 100 (0 no effect, 100 complete control), 13 to 15 days
Procedure, shortened: as §2

cocklebur = test: Test B pre-/postemergence herbicide test; assay type: in vivo, Xanthium strumarium
Procedure, shortened: as §5

Surinam grass = test: Test B pre-/postemergence herbicide test; assay type: in vivo, Urochloa decumbens
Procedure, shortened: as §1

barnyardgrass [11] = test: Test B flooded paddy test; assay type: in vivo, Echinochloa crus-galli; conditions: 1000 g ai/ha, visual rating, scale 0 to 100 (0 no effect, 100 complete control), 13 to 15 days
Procedure, shortened: as §2

pigweed = test: Test B pre-/postemergence herbicide test; assay type: in vivo, Amaranthus retroflexus
Procedure, shortened: as §1

lambsquarters = test: Test B pre-/postemergence herbicide test; assay type: in vivo, Chenopodium album
Procedure, shortened: as §1

wheat = test: Test B postemergence herbicide test; assay type: in vivo, Triticum aestivum; design: key to Wheat plant response rating: 0 = no effect, 100 = complete control; conditions: scale 0 (no effect) to 100 (complete control)
Procedure, shortened: as §4

large crabgrass [12] = test: Test A pre-/postemergence herbicide test; assay type: in vivo, Digitaria sanguinalis
Procedure, shortened: as §3

barnyardgrass [13] = test: Test B pre-/postemergence herbicide test; assay type: in vivo, Echinochloa crus-galli
Procedure, shortened: as §5

velvetleaf [14] = test: Test B pre-/postemergence herbicide test; assay type: in vivo, Abutilon theophrasti
Procedure, shortened: as §1

[15] = Postemergence, 500 g ai/ha, visual rating after 13 to 15 days, scale 0 (no effect) to 100 (complete control)
[16] = Preemergence, 500 g ai/ha, scale 0 to 100
[17] = postemergence, 125 g ai/ha, visual rating, scale 0 (no effect) to 100 (complete control)
[18] = preemergence, 125 g ai/ha, 0 to 100 scale, 0 is no effect, 100 is complete control
[19] = Postemergence, 500 g ai/ha, visual rating after 13 to 15 days
[20] = postemergence, 125 g ai/ha, visual rating
[21] = Postemergence, 500 g ai/ha, 0 to 100 scale, 0 no effect, 100 complete control
[22] = Postemergence, 2000 g ai/ha, 0 to 100 scale, 0 no effect, 100 complete control
[23] = Preemergence, 500 g ai/ha, visual rating, 0 to 100 scale (0 no effect, 100 complete control)
[24] = Preemergence, 2000 g ai/ha, 0 to 100 scale, 0 no effect, 100 complete control

Q: With `CCn1nc(C(C)(C)C)cc1C(=O)Nc1cccc(C(=O)OC)c1C` [Compound 87] as the compound, how does the “Plant response rating, Corn” value (corn; [15]) read?
A: 0

Q: What about the “Corn plant response rating” value (corn; [16]) of the same compound?
A: 0

Q: What about the “Corn plant response rating” value (corn; [17]) of the same compound?
A: 0

Q: And the “Plant response rating, Corn” value (corn; [18])?
A: 0

Q: And the “Plant response rating, Blackgrass” value (blackgrass; [19])?
A: 0

Q: What about the “Blackgrass plant response rating” value (blackgrass; [20]) of the same compound?
A: 0

Q: And the “Plant response rating, Foxtail, Giant” value (giant foxtail [1]; [15])?
A: 0

Q: What about the “Foxtail, Giant plant response rating” value (giant foxtail [1]; [16]) of the same compound?
A: 80

Q: And the “Foxtail, Giant plant response rating” value (giant foxtail [1]; [17])?
A: 0

Q: What about the “Plant response rating, Foxtail, Giant” value (giant foxtail [1]; [18]) of the same compound?
A: 10

Q: And the “Barnyardgrass plant response rating” value (barnyardgrass [2]; [21])?
A: 15

Q: What about the “Plant response rating, Barnyardgrass” value (barnyardgrass [2]; [22]) of the same compound?
A: 55

Q: What about the “Barnyardgrass plant response rating” value (barnyardgrass [2]; [23]) of the same compound?
A: 55

Q: What about the “Barnyardgrass plant response rating” value (barnyardgrass [2]; [24]) of the same compound?
A: 90

Q: What about the “Rice plant response rating” value (rice [3]) of the same compound?
A: 10

Q: And the “Plant response rating, Crabgrass, Large” value (large crabgrass [4]; [15])?
A: 60

Q: What about the “Crabgrass, Large plant response rating” value (large crabgrass [4]; [16]) of the same compound?
A: 100

Q: What about the “Crabgrass, Large plant response rating” value (large crabgrass [4]; [17]) of the same compound?
A: 0

Q: And the “Plant response rating, Crabgrass, Large” value (large crabgrass [4]; [18])?
A: 90

Q: What about the “Sedge, Umbrella plant response rating” value [5] of the same compound?
A: 80

Q: What about the “Pigweed plant response rating” value (redroot pigweed; [21]) of the same compound?
A: 10

Q: And the “Plant response rating, Pigweed” value (redroot pigweed; [22])?
A: 35

Q: And the “Pigweed plant response rating” value (redroot pigweed; [23])?
A: 60

Q: And the “Pigweed plant response rating” value (redroot pigweed; [24])?
A: 95

Q: And the “Morningglory plant response rating” value (morningglory [6]; [21])?
A: 15

Q: And the “Plant response rating, Morningglory” value (morningglory [6]; [22])?
A: 20

Q: What about the “Morningglory plant response rating” value (morningglory [6]; [23]) of the same compound?
A: 15

Q: And the “Morningglory plant response rating” value (morningglory [6]; [24])?
A: 15

Q: And the “Velvetleaf plant response rating” value (velvetleaf [7]; [21])?
A: 10

Q: And the “Plant response rating, Velvetleaf” value (velvetleaf [7]; [22])?
A: 25

Q: And the “Velvetleaf plant response rating” value (velvetleaf [7]; [23])?
A: 25

Q: And the “Velvetleaf plant response rating” value (velvetleaf [7]; Preemergence, 2000 g ai/ha, visual rating, 0 to 100 scale (0 no effect, 100 complete control))?
A: 65

Q: What about the “Plant response rating, Oat, Wild” value (wild oat; [19]) of the same compound?
A: 0

Q: What about the “Oat, Wild plant response rating” value (wild oat; [20]) of the same compound?
A: 0

Q: And the “Plant response rating, Rice” value (rice [8])?
A: 0

Q: What about the “Foxtail, Giant plant response rating” value (giant foxtail [9]; [21]) of the same compound?
A: 20

Q: What about the “Plant response rating, Foxtail, Giant” value (giant foxtail [9]; [22]) of the same compound?
A: 50

Q: And the “Foxtail, Giant plant response rating” value (giant foxtail [9]; [23])?
A: 35

Q: What about the “Foxtail, Giant plant response rating” value (giant foxtail [9]; [24]) of the same compound?
A: 90

Q: What about the “Plant response rating, Morningglory” value (morningglory [10]; [15]) of the same compound?
A: 0

Q: And the “Morningglory plant response rating” value (morningglory [10]; [17])?
A: 0

Q: What about the “Plant response rating, Morningglory” value (morningglory [10]; [18]) of the same compound?
A: 0

Q: What about the “Ducksalad plant response rating” value (ducksalad) of the same compound?
A: 20

Q: And the “Plant response rating, Cocklebur” value (cocklebur; [15])?
A: 0

Q: What about the “Cocklebur plant response rating” value (cocklebur; [16]) of the same compound?
A: 0

Q: What about the “Cocklebur plant response rating” value (cocklebur; [17]) of the same compound?
A: 0

Q: And the “Plant response rating, Cocklebur” value (cocklebur; [18])?
A: 0

Q: What about the “Plant response rating, Surinam Grass” value (Surinam grass; [15]) of the same compound?
A: 0

Q: And the “Surinam Grass plant response rating” value (Surinam grass; [17])?
A: 0

Q: And the “Plant response rating, Surinam Grass” value (Surinam grass; [18])?
A: 0

Q: And the “Barnyardgrass plant response rating” value (barnyardgrass [11])?
A: 20

Q: And the “Plant response rating, Pigweed” value (pigweed; [15])?
A: 0

Q: And the “Pigweed plant response rating” value (pigweed; [17])?
A: 0

Q: And the “Plant response rating, Pigweed” value (pigweed; [18])?
A: 40

Q: And the “Plant response rating, Lambsquarters” value (lambsquarters; [15])?
A: 0

Q: What about the “Lambsquarters plant response rating” value (lambsquarters; [17]) of the same compound?
A: 0

Q: And the “Plant response rating, Lambsquarters” value (lambsquarters; [18])?
A: 70

Q: And the “Plant response rating, Wheat” value (wheat; [19])?
A: 0

Q: What about the “Wheat plant response rating” value (wheat; [20]) of the same compound?
A: 0

Q: What about the “Crabgrass, Large plant response rating” value (large crabgrass [12]; [21]) of the same compound?
A: 20

Q: What about the “Plant response rating, Crabgrass, Large” value (large crabgrass [12]; [22]) of the same compound?
A: 60

Q: And the “Crabgrass, Large plant response rating” value (large crabgrass [12]; [23])?
A: 90

Q: And the “Crabgrass, Large plant response rating” value (large crabgrass [12]; [24])?
A: 95

Q: And the “Plant response rating, Barnyardgrass” value (barnyardgrass [13]; [15])?
A: 0

Q: What about the “Barnyardgrass plant response rating” value (barnyardgrass [13]; [16]) of the same compound?
A: 70

Q: And the “Barnyardgrass plant response rating” value (barnyardgrass [13]; [17])?
A: 0

Q: What about the “Plant response rating, Barnyardgrass” value (barnyardgrass [13]; [18]) of the same compound?
A: 20

Q: And the “Plant response rating, Velvetleaf” value (velvetleaf [14]; [15])?
A: 0

Q: What about the “Velvetleaf plant response rating” value (velvetleaf [14]; [17]) of the same compound?
A: 0

Q: And the “Plant response rating, Velvetleaf” value (velvetleaf [14]; [18])?
A: 0
